Results on 30 molecules are retold here after patent US10968203B2, “Pyrimidinyl-pyridyloxy-naphthyl compounds and methods of treating IRE1-related diseases and disorders” (Genentech, Inc., priority 2017, dated 2021).

This assay concerns XBP1s-luc 293 LUC. The assay can be described thus: cellular PD assay, XBP1s-LUC reporter (Example 903). Type of assay: cell-based. To be noted: read-out: XBP1s-luc 293 LUC (IC50). The gist of the method: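 Cellular IRE1α pathway activity was quantified from the luciferase signal of an XBP1-Luc reporter, where the luciferase fusion is in frame and expressed only from the spliced XBP1 transcript.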

Structures can show the parent of a compound that is named as a salt. Where two headings read alike, the source gives them in different places.

With `Cc1ccc2c(NC(=O)Cc3ccccc3)cccc2c1Oc1ncccc1-c1ccnc(N[C@H]2CCCNC2)n1` [Example 184, N-[6-Methyl-5-[[3-[2-[[(3S)-3-piperidyl]amino]pyrimidin-4-yl]-2-pyridyl]oxy]-1-naphthyl]-2-phenyl-acetamide], for the setting “Table 1”, the concentration for half-maximal inhibition (IC50) came out at 100 nM.

As to `CCCS(=O)(=O)Nc1cccc2c(Oc3ncc(C)cc3-c3ccnc(N[C@H]4CCCNC4)n3)c(C)ccc12` [Example 240, (S)—N-(6-Methyl-5-((5-methyl-3-(2-(piperidin-3-ylamino)pyrimidin-4-yl)pyridin-2-yl)oxy)naphthalen-1-yl)propane-1-sulfonamide], for the setting “Table 1”, the IC50 was determined as 167 nM.

As to `Cc1ccc2c(NC(=O)CC3CCCCC3)cccc2c1Oc1ncccc1-c1ccnc(N[C@H]2CCCNC2)n1` [Example 130, (S)-2-Cyclohexyl-N-(6-methyl-5-((3-(2-(piperidin-3-ylamino)pyrimidin-4-yl)pyridin-2-yl)oxy)naphthalen-1-yl)acetamide], under “Table 1”, the IC50 was 228 nM.

For the molecule `Cc1ccc2c(NS(=O)(=O)CC(C)C)c(F)ccc2c1Oc1ncccc1-c1ccnc(N[C@@H]2CNC[C@@H](C)C2)n1` [Example 401, N-[2-Fluoro-6-methyl-5-[[3-[2-[[(3S,5S)-5-methyl-3-piperidyl]amino]pyrimidin-4-yl]-2-pyridyl]oxy]-1-naphthyl]-2-methyl-propane-1-sulfonamide hydrochloride], the IC50 (Table 2) came to 67 nM.

Regarding `Cc1ccc2c(NC(=O)C3(C)CC3)cccc2c1Oc1ncccc1-c1ccnc(N[C@@H]2CNC[C@H](C)C2)n1` [Example 368, 1-Methyl-N-(6-methyl-5-((3-(2-(((3S,5R)-5-methylpiperidin-3-yl)amino)pyrimidin-4-yl)pyridin-2-yl)oxy)naphthalen-1-yl)cyclopropanecarboxamide], the half-maximal inhibitory concentration (IC50) (Table 1) amounted to 214 nM.

As to `Cc1ccc2c(NC(=O)CCC(F)(F)F)cccc2c1Oc1ncccc1-c1ccnc(N[C@H]2CCCNC2)n1` [Example 178, (S)-4,4,4-Trifluoro-N-(6-methyl-5-((3-(2-(piperidin-3-ylamino)pyrimidin-4-yl)pyridin-2-yl)oxy)naphthalen-1-yl)butanamide], the IC50 (Table 1) came to 125 nM.

In the case of `Cc1ccc2c(NS(=O)(=O)CC(F)(F)F)c(F)ccc2c1Oc1ncccc1-c1ccnc(N[C@@H]2CNC[C@@H](F)C2)n1` (single isomer, unassigned) [Example 444, hydrochloride], the IC50 (Table 2) came out at 19 nM.

Take `Cc1nc(CS(=O)(=O)Nc2c(F)ccc3c(Oc4ncccc4-c4ccnc(N[C@@H]5CNC[C@@H](F)C5)n4)c(C)ccc23)cs1` (single isomer, unassigned) [Example 490, hydrochloride]: the IC50 (Table 2) amounted to 4 nM.

Turning to `Cc1ccc2c(NCc3cscn3)cccc2c1Oc1ncccc1-c1ccnc(N[C@H]2CCCNC2)n1` [Example 211, (S)-4-(2-((2-Methyl-5-((thiazol-4-ylmethyl)amino)naphthalen-1-yl)oxy)pyridin-3-yl)-N-(piperidin-3-yl)pyrimidin-2-amine], the IC50 (Table 1) is 70 nM.

For the molecule `CCCS(=O)(=O)Nc1cccc2c(Oc3ncccc3-c3ccnc(N[C@H]4CCCNC4)n3)c(Cl)ccc12` [Example 181], the IC50 (Table 1) was determined as 185 nM.

With `CCCS(=O)(=O)Nc1cccc2c(Oc3ncc(Br)cc3-c3ccnc(N[C@H]4CCCNC4)n3)c(C)ccc12` [Example 336, (S)-N-(5-((5-Bromo-3-(2-(piperidin-3-ylamino)pyrimidin-4-yl)pyridin-2-yl)oxy)-6-methylnaphthalen-1-yl)propane-1-sulfonamide], the IC50 (Table 1) worked out at 540 nM.

As for `CCCC(=O)Nc1cccc2c(Oc3ncccc3-c3ccnc(N[C@H]4CCCNC4)n3)c(C)ccc12` [Example 117, (S)—N-(6-Methyl-5-((3-(2-(piperidin-3-ylamino)pyrimidin-4-yl)pyridin-2-yl)oxy)naphthalen-1-yl)butyramide hydrochloride], the IC50 (Table 1) stood at 145 nM.

As to `Cc1ccc2c(Oc3ncccc3-c3ccnc(N[C@H]4CCCNC4)n3)c(C)ccc2c1NC[C@H](O)C(F)(F)F` [Example 319, (S)-3-((2,6-Dimethyl-5-((3-(2-((S)-piperidin-3-ylamino)pyrimidin-4-yl)pyridin-2-yl)oxy)naphthalen-1-yl)amino)-1,1,1-trifluoropropan-2-ol], the IC50 was 48.2 nM.

Regarding `Cc1ccc2c(NS(=O)(=O)C(C)C)cccc2c1Oc1ncccc1-c1ccnc(N[C@H]2CCCNC2)n1` [Example 106, (S)—N-(6-Methyl-5-((3-(2-(piperidin-3-ylamino)pyrimidin-4-yl)pyridin-2-yl)oxy)naphthalen-1-yl) methylethylsulfonamide hydrochloride], the IC50 (Table 1) was determined as 349 nM.

Regarding `Cc1ncc(S(=O)(=O)Nc2cccc3c(Oc4ncccc4-c4ccnc(N[C@H]5CCCNC5)n4)c(C)ccc23)s1` [Example 210, (S)-2-Methyl-N-(6-methyl-5-((3-(2-(piperidin-3-ylamino)pyrimidin-4-yl)pyridin-2-yl)oxy)naphthalen-1-yl)thiazole-5-sulfonamide], where the note is “Table 1”, the IC50 is 459 nM.

With `Cc1ccc2c(NS(=O)(=O)N(C)C)c(F)ccc2c1Oc1ncccc1-c1ccnc(N[C@H]2CCCNC2)n1` [Example 324, 4-[2-[[5-(Dimethylsulfamoylamino)-6-fluoro-2-methyl-1-naphthyl]oxy]-3-pyridyl]-2-[[(3S)-3-piperidyl]amino]pyrimidine], where the note is “Table 1”, the IC50 came out at 45.5 nM.

Take `Cc1ccc2c(NCC(C)C)cccc2c1Oc1ncccc1-c1ccnc(N[C@H]2CCCNC2)n1` [Example 349, (S)-4-(2-((5-(Isobutylamino)-2-methylnaphthalen-1-yl)oxy)pyridin-3-yl)-N-(piperidin-3-yl)pyrimidin-2-amine]: the IC50 (Table 1) amounted to 432 nM.

On to `Cc1ccc2c(NS(=O)(=O)CCC3CC3)c(F)ccc2c1Oc1ncccc1-c1ccnc(N[C@H]2CCCNC2)n1` [Example 399, (S)-2-Cyclopropyl-N-(2-fluoro-6-methyl-5-((3-(2-(piperidin-3-ylamino)pyrimidin-4-yl)pyridin-2-yl)oxy)naphthalen-1-yl)ethanesulfonamide hydrochloride], for which the IC50 (Table 2) came to 72 nM.

With `Cc1ccc2c(NC(=O)C3CC(F)(F)C3)cccc2c1Oc1ncccc1-c1ccnc(N[C@H]2CCCNC2)n1` [Example 219, (S)-3,3-Difluoro-N-(6-methyl-5-(3-(2-(piperidin-3-ylamino)pyrimidin-4-yl)pyridin-2-yloxy)naphthalen-1-yl)cyclobutanecarboxamide], the half-inhibitory concentration (IC50) (Table 1) was 119 nM.

Turning to `Cc1ccc2c(NS(=O)(=O)CCC(F)(F)F)c(F)ccc2c1Oc1ncccc1-c1ccnc(N[C@@H]2CNC[C@H](C)C2)n1` [Example 311, 3,3,3-Trifluoro-N-(2-fluoro-6-methyl-5-((3-(2-(((3S,5R)-5-methylpiperidin-3-yl)amino)pyrimidin-4-yl)pyridin-2-yl)oxy)naphthalen-1-yl)propane-1-sulfonamide], where the note is “Table 1”, the IC50 was 6.16 nM.

With `COCCS(=O)(=O)Nc1c(F)ccc2c(Oc3ncccc3-c3ccnc(N[C@@H]4CNC[C@H](C)C4)n3)c(C)ccc12` [Example 431, N-[2-Fluoro-6-methyl-5-[[3-[2-[[(3S,5R)-5-methyl-3-piperidyl]amino]pyrimidin-4-yl]-2-pyridyl]oxy]-1-naphthyl]-2-methoxy-ethanesulfonamide hydrochloride], the half-maximal inhibitory concentration (IC50) (Table 2) worked out at 34 nM.

With `Cc1ccc2c(NC(=O)[C@@H]3C[C@@H]3F)cccc2c1Oc1ncccc1-c1ccnc(N[C@H]2CCCNC2)n1` (relative stereo) [Example 212, (1S,2S)-2-Fluoro-N-[6-methyl-5-[[3-[2-[[(3S)-3-piperidyl]amino]pyrimidin-4-yl]-2-pyridyl]oxy]-1-naphthyl]cyclopropanecarboxamide], the IC50 (Table 1) is 122 nM.

As to `Cc1ccc2c(NCC[C@H](C)O)cccc2c1Oc1ncccc1-c1ccnc(N[C@H]2CCCNC2)n1` (single isomer, unassigned) [Example 202], the IC50 (Table 1) was found to be 123 nM.

For `Cc1ccc2c(Nc3cc(C)n(C)n3)cccc2c1Oc1ncccc1-c1ccnc(N[C@H]2CCCNC2)n1` [Example 258, (S)-4-(2-((5-((1,5-Dimethyl-1H-pyrazol-3-yl)amino)-2-methylnaphthalen-1-yl)oxy)pyridin-3-yl)-N-(piperidin-3-yl)pyrimidin-2-amine], for the setting “Table 1”, the IC50 worked out at 419 nM.

Regarding `Cc1nc(CNc2c(F)ccc3c(Oc4ncccc4-c4ccnc(N[C@@H]5CNC[C@H](C)C5)n4)c(C)ccc23)cs1` [Example 307, 4-(2-((6-Fluoro-2-methyl-5-(((2-methylthiazol-4-yl)methyl)amino)naphthalen-1-yl)oxy)pyridin-3-yl)-N-((3S,5R)-5-methylpiperidin-3-yl)pyrimidin-2-amine], where the note is “Table 1”, the IC50 worked out at 360 nM.

With `Cc1ccc2c(NC(=O)[C@H]3CC34CC4)c(F)ccc2c1Oc1ncccc1-c1ccnc(N[C@H]2CCCNC2)n1` (single isomer, unassigned) [Example 379], for the setting “Table 1”, the IC50 came to 279 nM.

As for `Cc1ccc2c(NS(=O)(=O)CC(C)C)cccc2c1Oc1ncccc1-c1ccnc(N[C@H]2CCCNC2)n1` [Example 121, (S)-2-Methyl-N-(6-methyl-5-((3-(2-(piperidin-3-ylamino)pyrimidin-4-yl)pyridin-2-yl)oxy)naphthalen-1-yl)propane-1-sulfonamide hydrochloride], the IC50 (Table 1) amounted to 103 nM.

Take `Cc1ccc2c(NC3CCCC[C@H]3O)cccc2c1Oc1ncccc1-c1ccnc(N[C@H]2CCCNC2)n1` (stereo partly drawn) [Example 384, trans-2-((6-Methyl-5-((3-(2-((S)-piperidin-3-ylamino)pyrimidin-4-yl)pyridin-2-yl)oxy)naphthalen-1-yl)amino)cyclohexanol]: under “Table 1”, the IC50 was 146 nM.

Take `Cc1ccc2c(N3C(=O)C4CCCC43)cccc2c1Oc1ncccc1-c1ccnc(N[C@H]2CCCNC2)n1` (single isomer, unassigned) [Example 248]: the IC50 (Table 1) was 457 nM.

`Cc1ccc2c(NS(=O)(=O)N(C)C3CC3)c(F)ccc2c1Oc1ncccc1-c1ccnc(N[C@H]2CCCNC2)n1` [Example 440, 4-[2-[[5-[[Cyclopropyl(methyl)sulfamoyl]amino]-6-fluoro-2-methyl-1-naphthyl]oxy]-3-pyridyl]-2-[[(3S)-3-piperidyl]amino]pyrimidine hydrochloride]: the IC50 (Table 2) stood at 26 nM.

As a reminder, the IC50 is the point on the concentration scale where inhibition reaches its midpoint.
